In the assay the target is T1, SHP2 protein (Homo sapiens, UniProt Q06124).
T1 sequence (Q06124 1-593): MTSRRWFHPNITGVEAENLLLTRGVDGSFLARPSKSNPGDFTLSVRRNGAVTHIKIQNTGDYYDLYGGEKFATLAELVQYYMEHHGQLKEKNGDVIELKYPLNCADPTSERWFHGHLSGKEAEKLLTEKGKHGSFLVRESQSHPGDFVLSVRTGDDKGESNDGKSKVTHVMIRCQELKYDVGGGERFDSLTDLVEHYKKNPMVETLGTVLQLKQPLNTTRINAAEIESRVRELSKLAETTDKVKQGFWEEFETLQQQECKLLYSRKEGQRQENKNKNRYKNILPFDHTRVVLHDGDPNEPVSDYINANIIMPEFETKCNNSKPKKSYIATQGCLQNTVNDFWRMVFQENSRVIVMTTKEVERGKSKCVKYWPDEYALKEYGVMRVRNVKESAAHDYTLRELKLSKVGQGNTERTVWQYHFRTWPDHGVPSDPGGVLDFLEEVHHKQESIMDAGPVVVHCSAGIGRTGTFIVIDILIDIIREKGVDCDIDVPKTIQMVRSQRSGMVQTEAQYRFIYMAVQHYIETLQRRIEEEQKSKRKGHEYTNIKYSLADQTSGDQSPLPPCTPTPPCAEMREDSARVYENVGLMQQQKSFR
The assay can be described thus: Measurement of SHP2 protein degradation in MV-4-11 cells (western blotting). The assay is classed as cell-based. Also on record: endogenous in cells; host or cells: MV-4-11. The protocol: Experimental Example 2: Measurement of SHP2 Protein Degradation in MV-4-11 Cells
MV-4-11 cells were treated with the synthesized Example compound, and the amount of SHP2 protein present in the cells was measured using western blotting detection. The protocol of the experiment conducted using MV-4-11 cells was as follows:
[Culture] MV-4-11 cells resuspended in IMDM MEDIUM (Hyclone, SH30228.01) containing 5% FBS (Hyclone, SV30207.02) and 1% Penicillin-streptomycin (Welgene, LS 202-02) were seeded at a density of 1×10^6/mL/well in a 12-well plate in an amount of 1 ml each.
[Compound treatment] The 12-well plate was treated as follows: Cells were treated with compounds at a final concentration of […] made by serial dilution of 10 mM stock with DMSO in 1/100 increments […]. After 24 hours, cells were harvested. For the negative control group, DMSO diluted 1/100 to the media (3 mL DMSO+297 mL media) was added.
[Harvest] Each well was collected in a 1.5 mL microtube by pipetting with a 1 mL pipette and centrifuged (500 g, 5 min, 4° C.). The supernatant was removed. It was washed with PBS, and then centrifuged again (500 g, 5 min, 4° C.). Thereafter, the supernatant was removed to prepare a pellet.
[Cell Lysis and Sample preparation] Lysis buffer was prepared as follows: […] of RIPA buffer (Biosesang, RC2038-050-00)+0.5 mM PMSF (SIGMA, P7626)+1× Protease/Phosphatase Inhibitor (Cell signaling, 5872S) per well was added and placed on ice for 30 minutes (vortexing at 0 and 30 minutes, respectively). After sonication process (10 seconds pulse, 30 seconds rest, 5 cycles, 70% amplification), centrifugation (15000 g, 15 min, 4° C.) was performed, and then only the supernatant was taken and transferred to a microtube. The sample was diluted ¼ with RIPA buffer in a 96-well plate, and mixed with A:B=50:1 of the BCA Protein Assay Kit (iNtRON, 21071). […] each of the mixture was left at 37° C. for 30 minutes, and cooled for 10 minutes. Then, absorbance was measured at 562 nm with the SYNERGY H1 microplate reader from BioTek. After making a sample by quantifying the protein with the measured value, boiling was performed at 70° C. for 10 minutes. At this time, the sample buffer used was a mixture of NuPAGE or Bolt 4× sample buffer (Invitrogen) and each 10× sample reducing agent according to the gel to be used, and RIPA buffer was used for protein dilution.
[Western blotting detection method] The same amount of sample was loaded on NuPAGE or Bolt Bis-tris 4-12% gradient gel and run (200 V, 35 minutes). It was transferred to 0.2 mm NC membrane with Trans-blot Turbo (BIO-RAD) (1.3 A constant, 25 V limit, 15 minutes). Blocking was performed at room temperature for 1 hour with Skim milk or Intercept Blocking Buffer (LI-COR, 927-60001):0.1% TBST=1:1. Anti-SHPTP2 Mouse (1:500 in 2% BSA/0.2% TBST, size: 70 kDa, Santacruz sc-7384) was incubated overnight at 4° C., and Anti-GAPDH Rabbit (1:2,000 in 2% BSA/0.2% TBST, size: 37 kDa, CST #2118) was incubated at room temperature for 1 hour 30 minutes or 3 hours. It was washed 3 times for 5 minutes each with 0.2% TBST washing buffer. Secondary antibody Anti-Rabbit IgG (1:5,000 in 2% BSA/0.2% TBST, CST), IRDye® 680RD Goat anti-Rabbit IgG Secondary Antibody (1:10,000 in 2% BSA/0.2% TBST, LI-COR 926-68071) were added and incubated for 45 minutes on a rocker at room temperature. It was washed 5 times for 5 minutes each with 0.2% TBST washing buffer and detected with LI-COR's Odyssey. At this time, SHPTP2 was detected using SuperSignal West Pico PLUS Chemiluminescent Substrate, and house-keeping genes were also detected.
In the results of Table 4 below, Compounds 1-7, 13-19, and 21-26 are results in KYSE-520 cells, and the others are results in MV-4-11 cells.

Regarding `COC(=O)[C@@H]1CN(C(=O)CC(=O)Nc2cccc(Sc3cnc(N4CCC(C)(CN)CC4)cn3)c2Cl)CCN1CCOc1cc(-c2scnc2C)ccc1CNC(=O)[C@@H]1C[C@@H](O)CN1C(=O)[C@@H](NC(=O)C1(F)CC1)C(C)(C)C` [Example 66, (S)-methyl 4-(3-((3-((5-(4-(aminomethyl)-4-methylpiperidin-1-yl)pyrazin-2-yl)thio)-2-chlorophenyl)amino)-3-oxopropanoyl)-1-(2-(2-(((2S,4R)-1-((S)-2-(1-fluorocyclopropane-1-carboxamido)-3,3-dimethylbutanoyl)-4-hydroxypyrrolidine-2-carboxamido)methyl)-5-(4-methylthiazol-5-yl)phenoxy)ethyl)piperazine-2-carboxylate], for the setting “MV-4-11 cells, 24 hours”, the “SHP2 degradation (%) 10 nM” value stood at 79% and the “SHP2 degradation (%) 100 nM” value is on record as 98.1%.

Take `Cc1ncsc1-c1ccc(CNC(=O)[C@@H]2C[C@@H](O)CN2C(=O)[C@@H](NC(=O)C2(F)CC2)C(C)(C)C)c(OC2CC3(CCN(C(=O)CC(=O)N(C)c4cccc(Sc5cnc(N6CCC(C)(CN)CC6)cn5)c4Cl)CC3)C2)c1` [Example 51, (2S,4R)—N-(2-((7-(3-((3-((5-(4-(aminomethyl)-4-methylpiperidin-1-yl)pyrazin-2-yl)thio)-2-chlorophenyl)(methyl)amino)-3-oxopropanoyl)-7-azaspiro[3.5]nonan-2-yl)oxy)-4-(4-methylthiazol-5-yl)benzyl)-1-((S)-2-(1-fluorocyclopropane-1-carboxamido)-3,3-dimethylbutanoyl)-4-hydroxypyrrolidine-2-carboxamide]: where the note is “MV-4-11 cells, 24 hours”, the “SHP2 degradation (%) 10 nM” value is recorded as 4.7% and the “SHP2 degradation (%) 100 nM” value was 74.1%.

As for `COC(=O)[C@H]1CN(C(=O)CC(=O)Nc2cccc(Sc3cnc(N4CCC(C)(CN)CC4)cn3)c2Cl)CCN1CCOc1cc(-c2scnc2C)ccc1CNC(=O)[C@@H]1C[C@@H](O)CN1C(=O)[C@@H](NC(=O)C1(F)CC1)C(C)(C)C` [Example 67, Methyl (R)-4-(3-((3-((5-(4-(aminomethyl)-4-methylpiperidin-1-yl)pyrazin-2-yl)thio)-2-chlorophenyl)amino)-3-oxopropanoyl)-1-(2-(2-(((2S,4R)-1-((S)-2-(1-fluorocyclopropane-1-carboxamido)-3,3-dimethylbutanoyl)-4-hydroxypyrrolidine-2-carboxamido)methyl)-5-(4-methylthiazol-5-yl)phenoxy)ethyl)piperazine-2-carboxylate], where the note is “MV-4-11 cells, 24 hours”, the “SHP2 degradation (%) 10 nM” value is given as 68.3% and the “SHP2 degradation (%) 100 nM” value is recorded as 98.1%.

On to `Cc1ncsc1-c1ccc(CNC(=O)[C@@H]2C[C@@H](O)CN2C(=O)[C@@H](NC(=O)C2(F)CC2)C(C)(C)C)c(OCC2CCN(C(=O)C3(C(=O)Nc4cccc(Sc5cnc(N6CCC(C)(CN)CC6)cn5)c4Cl)CC3)CC2)c1` [Example 46, (2S,4R)—N-(2-((1-(1-((3-((5-(4-(aminomethyl)-4-methylpiperidin-1-yl)pyrazin-2-yl)thio)-2-chlorophenyl)carbamoyl)cyclopropane-1-carbonyl)piperidin-4-yl)methoxy)-4-(4-methylthiazol-5-yl)benzyl)-1-((S)-2-(1-fluorocyclopropane-1-carboxamido)-3,3-dimethylbutanoyl)-4-hydroxypyrrolidine-2-carboxamide], for which, for the setting “MV-4-11 cells, 24 hours”, the “SHP2 degradation (%) 10 nM” value stood at 0.1% and the “SHP2 degradation (%) 100 nM” value worked out at 52.3%. In addition, the “SHP2 protein degradation activity (in words)” value (comment on Table 4) is “somewhat decreased”.

For the molecule `Cc1ncsc1-c1ccc(CNC(=O)[C@@H]2C[C@@H](O)CN2C(=O)[C@@H](NC(=O)C2(F)CC2)C(C)(C)C)c(OCCCC2CCN(C(=O)CC(=O)Nc3cccc(Sc4ncc(N5CCC(C)(CN)CC5)nc4N)c3Cl)CC2)c1` [Example 42, (2S,4R)—N-(2-(3-(1-(3-((3-((3-amino-5-(4-(aminomethyl)-4-methylpiperidin-1-yl)pyrazin-2-yl)thio)-2-chlorophenyl)amino)-3-oxopropanoyl)piperidin-4-yl)propoxy)-4-(4-methylthiazol-5-yl)benzyl)-1-((S)-2-(1-fluorocyclopropane-1-carboxamido)-3,3-dimethylbutanoyl)-4-hydroxypyrrolidine-2-carboxamide], where the note is “MV-4-11 cells, 24 hours”, the “SHP2 degradation (%) 10 nM” value was 73.5% and the “SHP2 degradation (%) 100 nM” value is reported as 95.0%.

For `Cc1ncsc1-c1ccc(CNC(=O)[C@@H]2C[C@@H](O)CN2C(=O)[C@@H](NC(=O)C2(F)CC2)C(C)(C)C)c(OCC2CCN(C(=O)CC(=O)Nc3cccc(Sc4cnc(N5CCC(C)(CN)CC5)cn4)c3Cl)CC2)c1` [Example 31, (2S,4R)—N-(2-((1-(3-((3-((5-(4-(aminomethyl)-4-methylpiperidin-1-yl)pyrazin-2-yl)thio)-2-chlorophenyl)amino)-3-oxopropanoyl)piperidin-4-yl)methoxy)-4-(4-methylthiazol-5-yl)benzyl)-1-((S)-2-(1-fluorocyclopropane-1-carboxamido)-3,3-dimethylbutanoyl)-4-hydroxypyrrolidine-2-carboxamide], where the note is “MV-4-11 cells, 24 hours”, the “SHP2 degradation (%) 10 nM” value turned out to be 76% and the “SHP2 degradation (%) 100 nM” value was determined as 97%. For the same molecule, the “SHP2 degradation (%) 1000 nM” value (MV-4-11 cells, 1000 nM, 24 hours) was 97.5%.

Consider `Cc1ncsc1-c1ccc(CNC(=O)[C@@H]2C[C@@H](O)CN2C(=O)[C@@H](NC(=O)C2(F)CC2)C(C)(C)C)c(OCCCN2CCN(CC(=O)Nc3cccc(Sc4cnc(N5CCC(C)(CN)CC5)cn4)c3Cl)CC2)c1` [Example 73, (2S,4R)—N-(2-(3-(4-(2-((3-((5-(4-(aminomethyl)-4-methylpiperidin-1-yl)pyrazin-2-yl)thio)-2-chlorophenyl)amino)-2-oxoethyl)piperazin-1-yl)propoxy)-4-(4-methylthiazol-5-yl)benzyl)-1-((S)-2-(1-fluorocyclopropane-1-carboxamido)-3,3-dimethylbutanoyl)-4-hydroxypyrrolidine-2-carboxamide], for which, where the note is “MV-4-11 cells, 24 hours”, the “SHP2 degradation (%) 10 nM” value amounted to 8.2% and the “SHP2 degradation (%) 100 nM” value was found to be 81.2%.

Source of the values: patent US20250230154A1, “COMPOUND HAVING SHP2 PROTEIN DEGRADING ACTIVITY, AND MEDICAL USES THEREOF” (UBIX THERAPEUTICS, INC., priority 2021, published 2025).
